# What was measured:
# [1] = system: cultured human keratinocytes; assay: Triglyceride biosynthesis in cultured normal human keratinocytes (3H-acetate incorporation); assay type: cell-based; settings: 10 mM; 18.5 hours, then 3 hours with 3H-acetate; FIG. 1
# Procedure: Normal human keratinocytes (hereinafter "NHK") were cultured and then divided into three groups. Each of the three groups were grown in various media for 18.5 hours, the various media being as follows:
# 1 mM "cold" sodium acetate
# 10 mM Cholesterylmonophosphate (CMP)
# 10 mM 3'-(L-ascorbyl-2-o-phosphoryl)-cholesterol
# At the conclusion of 18.5 hours, 3H-acetate sodium salt (product number NEN#003H, 6.08 ci/mMole) was added to each group at 3 uCi/ml. The three groups were incubated at 37° C. for an additional 3 hours.
# At the conclusion of the incubation period, each group was washed three times with iced PBS. The cells were then collected, sonicated and aliquated for lipid extraction using Bligh/Dyer method and for protein quantification.
# The lipid extracts were subfracationated by Thin Layer Chromatography. Proteins were quantitated by Bradford assay.
# Triglyceride biosythesis in cultured human keratinocytes is measured as a function of incorporation of 3-H acetate. The incorporation of 3-H acetate is expressed as counts per minute per milligram of 3-H acetate (cpm/mg 3H acetate). The results are illustrated in FIG. 1.
# [2] = Superoxide anion scavenging by Electron Spin Resonance (hypoxanthine-xanthine oxidase system); assay type: biochemical; settings: about 2.5 mg/ml; pH 7.4
# Procedure: Superoxide anion scavenging ability was estimated according to the method described in the Liu et al. article noted above. Superoxide anion was generated by a hypoxanthine (hereinafter "HPX")-xanthine oxidase (hereinafter "XOD") system. The following solutions were prepared: 50 μl of 4 mM HPX in 0.1M potassium phosphate buffer; 30 μl of dimethyl sulfoxide, 50 μL of sample; 20 μL OF […] DMPO in 0.1M potassium phosphate buffer; and, 50 μl of XOD (0.4 units/ml) in 0.1M potassium phosphate buffer. The pH of the 0.1M potassium phosphate buffer was 7.4. The solutions of HPX, DMSO, DMPO, XOD and sample were mixed and transferred into a 200 μl-capacity flat cell. Electron Spin Resonance spectra was analyzed.
# [3] = system: Human elastin promoter; assay: Inhibition of elastin gene promoter activity in UVB-irradiated cultured dermal fibroblasts transfected with promoter-reporter molecules; assay type: cell-based; settings: for % Inhibition of elastin promoter activity at 6 hours / % Inhibition of elastin promoter activity at 12 hours: 100 μ Solution
# Procedure: An art recognized method for evaluating the molecular events associated with increased elastin production was performed by measuring the activity of the elastin gene promoter, which is responsible for the activation of elastin gene transcription. (Bernstein, E. et al. 1995 Jour. Invest. Dermatol. 105:269-273).
# Human elastin promoter molecules were linked to reporter molecules. The promoter-reporter linked molecules were then transfected into cultured dermal fibroblasts. Previous studies indicate that exposure of cultured fibroblasts to UVB radiation results in upregulation of elastin promoter activity. However, it is believed that UVA radiation may have an indirect effect on solar-induced elastosis.
# Solutions of 1 μM to 100 μM of each 3'-(L-ascorbyl-2-o-phosphoryl)-cholesterol and ascorbic acid were produced. These solutions were then supplied to cultured fibroblasts. The control consisted of cultured fibroblasts in media containing neither 3'-(L-ascorbyl-2-o-phosphoryl)-cholesterol nor ascorbic acid.
# The cultured fibroblasts were irradiated with single, dose of UVB radiation (5.5 mJ/cm^2) using an FS-40 light source. The spectrum of effectiveness of the FS-40 light source is estimated at 80 to 90% attributable to UVB. It is believed that 10 to 20% of the effectiveness of the FS-40 light source is attributable to […]. The activity attributable to UVA is believed to be negligible.
# [4] = system: human skin fibroblasts; assay: Collagen biosynthesis by cultured human skin fibroblasts ([3H]-Proline Incorporation Assay); assay type: cell-based; settings: 48 hours; for collagen biosynthesis, Dpm × 10^-3 / mg protein: control 1.55; for collagen biosynthesis, Dpm × 10^-5 / mg DNA: control 14.43
# Procedure: An art-recognized [^3 H]-Proline Incorporation Assay was performed with differne does of 3'-(L-ascorbyl-2-o-phosphoryl)-cholesterol. Juva, Anal. Biocheml, Vol, 15, PAGES 77-83 (1966); Booth, Biochem. Biophys. Acta, Vol. 675, pages 117-122 (1981).
# After the first 24 hours [^3 H]-labeled proline was added to the culture. Following the second 24 hour period, the cells are harvested and prepared for the collagen biosynthesis assay.
# Protease inhibitors are added to prevent degradation of collagen and other proteins. The cell layer is scraped into a solution containing 0.4 M NaCl and 0.01 M Tris (pH 7.5). Extracts are sonicated to disrup cell membranes. Saparate volumes of the cell-containing solution (1 ml each) are dialyzed overnight against several changes of deionized water. The retentate is removed from dialysis and hydrolyzed in 6 N hydrochloric acid at 120 degrees C. overnight. The assay is performed using an oxidation process with 2 M chloramine-T. Samples are analyzed for radioactive counts, with represent the amount of newly synthesized [^3 H]-labeled proline - - - an index for new collagen synthesis.
# [5] = Hydroxyl radical scavenging activity by Electron Spin Resonance (DMPO, H2O2/FeSO4); assay type: biochemical; settings: for Relative Peak Height (RPH): control 100.0; for Peak Height: pH 7.4
# Procedure: Hydroxy radical scavenging activity was measured according to an art accepted method. (See Liu et al. Antioxidant Action of Guilingji in the Brain of Rats with FeCl3-induced Epilepsy, Free Radical Biol. & Med., (9:451-545, 1990.) Sample solutions of 3'-(L-ascorbyl-2-o-phosphoryl)-cholesterol of varying concentrations were prepared by dissolving 3'-(L-ascorbyl-2-o-phosphoryl)-cholesterol in 0.1M potassium phosphate buffer (pH=7.4). The following solutions were also prepared: 0.18M 5,5-dimethyl-1-pyrooline-N-oxide (hereinafter "DMPO") in 0.1M potassium phosphate buffer; 2 mM hydrogen peroxide (hereinafter "H2 O2 ") in 0.1M potassium phosphate buffer; and 0. 2 mM iron(II) sulfate (hereinafter "FeSO4 ") in distilled water. Fifty (50) […] of each of the aforedescribed solutions and […] of a sample solution were mixed for thirty (30) seconds and then placed in a flat cell. The Electron Spin Resonance was then measured using Free Radical Monitor JES-FR30, manufactured by JEOL, Tokyo, Japan, (hereinafter "FRM"). The FRM normalized all spectra for calculation by using an internal standard of manganese dioxide (hereinafter "MnO2 "). All peak heights were compared to the constant MnO2 signal generated. Each sample peak height was then divided by the MnO2 peak height to provide a relative peak height (hereinafter "RPH").
smiles,measurement,setting,value
CC(C)CCC[C@@H](C)[C@H]1CC[C@H]2[C@@H]3CC=C4C[C@@H](OP(=O)(O)OC5=C(O)[C@@H]([C@@H](O)CO)OC5=O)CC[C@]4(C)[C@H]3CC[C@]12C [3'-(L-ascorbyl-2-o-phosphoryl)-cholesterol],triglyceride synthesis in cultured human keratinocytes (in words),[1],significantly increases triglyceride synthesis in cultured human keratinocytes
same,inhibition of the formation of the superoxide,[2],50%
same,effect on elastin promoter activity in cultured fibroblasts (in words),"[3]; 1 μM to 100 μM, UVB 5.5 mJ/cm^2",decreased elastin promoter activity in cultured fibroblasts in a dose dependent manner
same,degree of elastin promoter inhibition compared with ascorbic acid (in words),"[3]; 1 μM to 100 μM, compared to ascorbic acid",exhibits a far superior degree of elastin promoter inhibition
same,% Inhibition of elastin promoter activity at 6 hours,[3]; UVB 5.5 mJ/cm^2,43%
same,% Inhibition of elastin promoter activity at 12 hours,[3]; UVB 5.5 mJ/cm^2,34%
same,duration of elastin promoter inhibition compared with ascorbic acid (in words),[3]; compared to ascorbic acid,inhibits elastin promoter activity for a significantly longer period of time than ascorbic acid
same,dose dependence of stimulation in human skin fibroblasts (in words),[4]; 11.3 to 45 μg/ml,increased production of new human skin fibroblasts in a dose dependent manner
same,Stimulation - fold Increase of collagen biosynthesis,[4]; 11.3 μl/ml,2.9 fold
same,"collagen biosynthesis, Dpm × 10^-3 / mg protein",[4]; 11.3 μl/ml,5.17 Dpm × 10^-3 / mg protein
same,"collagen biosynthesis, Dpm × 10^-5 / mg DNA",[4]; 11.3 μl/ml,42.07 Dpm × 10^-5 / mg DNA
same,Stimulation - fold Increase of collagen biosynthesis,[4]; 22.5 μl/ml,3.3 fold
same,"collagen biosynthesis, Dpm × 10^-3 / mg protein",[4]; 22.5 μl/ml,5.02 Dpm × 10^-3 / mg protein
same,"collagen biosynthesis, Dpm × 10^-5 / mg DNA",[4]; 22.5 μl/ml,48.31 Dpm × 10^-5 / mg DNA
same,Stimulation - fold Increase of collagen biosynthesis,[4]; 45.0 μl/ml,6.4 fold
same,"collagen biosynthesis, Dpm × 10^-3 / mg protein",[4]; 45.0 μl/ml,11.07 Dpm × 10^-3 / mg protein
same,"collagen biosynthesis, Dpm × 10^-5 / mg DNA",[4]; 45.0 μl/ml,92.25 Dpm × 10^-5 / mg DNA
same,hydroxyl radical scavenging (in words),[5],effective scavenger of hydroxyl radicals
same,Relative Peak Height (RPH),[5]; 0.0391 mg/ml,100.0
same,Peak Height,[5]; 0.0391 mg/ml,1.60
same,Relative Peak Height (RPH),[5]; 0.0782 mg/ml,85.0
same,Peak Height,[5]; 0.0782 mg/ml,1.36
same,Relative Peak Height (RPH),[5]; 0.1563 mg/ml,78.1
same,Peak Height,[5]; 0.1563 mg/ml,1.25
same,Relative Peak Height (RPH),[5]; 0.3125 mg/ml,57.5
same,Peak Height,[5]; 0.3125 mg/ml,0.92
same,Relative Peak Height (RPH),[5]; 0.6250 mg/ml,30.6
same,Peak Height,[5]; 0.6250 mg/ml,0.49
same,Relative Peak Height (RPH),[5]; 1.2500 mg/ml,9.4
same,Peak Height,[5]; 1.2500 mg/ml,0.15
same,Relative Peak Height (RPH),[5]; 2.5000 mg/ml,5.6
same,Peak Height,[5]; 2.5000 mg/ml,0.09
"O=C1O[C@H]([C@@H](O)CO)C(O)=C1O [Ascorbic Acid, ascorbic acid, reference compound]",% Inhibition of elastin promoter activity at 6 hours,[3]; UVB 5.5 mJ/cm^2,23%
same,% Inhibition of elastin promoter activity at 12 hours,[3]; UVB 5.5 mJ/cm^2,0%
